Data taken from patent publication EP0361645B1, “Organic hydrazine derivatives for pharmaceutical use” (ROHM AND HAAS COMPANY, priority 1988, dated 1990).

What was measured:
Kr cells = assay: Process elaboration and inhibition of cell proliferation in Kr cells; format: cell-based, Drosophila; conditions: at saturating concentrations
Protocol: The invention will now be further described by way of exemplification and by reference to the drawings in which; • Figure 1. Both 20-hydroxyecdysone and Example No. 3 induce process elaboration (A) and inhibition of cell proliferation (B) in Kr cells in a dose-dependent manner. Initial cell density was 2 X 10^6 cells/ml; after incubation of 1 ml aliquots of the cells with the compound for 48 hours the cells were triturated gently and the percentage of cells responding (with processes longer than approximately 17 um, see Cherbas et al. 189 Wilhelm Roux's Arch. 1 (1980)) and total cell density was determined by hemocytom- eter counting, relative to ethanol (1 ul)-treated controls. Determinations were in triplicate for each dose. […] Induction of acetylcholinesterase by varying concentrations of 20-hydroxyecdysone and Example No. 3. Kr cells at an initial density of 3 X 10^6 cells/ml (10 ml per sample) were incubated with the agonist for three days. After harvesting, by centrifugation at 3000 X g, the cell pellets were washed with Robb's Drosophila saline (18, 2 X 5 ml) at 4 ° C, then lysed by sonication in 1 ml of phosphate buffer (pH 7.4, I = 0.1 M) containing 0.5 M NaCI, 0.25 M EDTA and 0.5% TRITON? X-100. See Cherbas, 197 Science 275 (1977). Triton is a registered trademark of Rohm and Haas Company for a alkylaryl polyoxyethylene glycol surfactant. After centrifugation at 16,000 X g, the supernatants were assayed for acetylcholinesterase activity by an adaptation of the method of Ellman et al., 7 Biochem. Pharmacol. 88 (1961), by subtracting out any 412 nm absorbance observed in incubations in the presence of 2 X 10-5 eserine sulfate. Thus reaction mixtures contained 50 ul of enzyme extract, 20 ul eserine (blank tubes only) and 1.0 ml of 0.5 mM acetylthiocholine, 0.3 mM dithiobisnitrobenzoic acid in phosphate buffer (pH 7.4, I = 0.1 M). Incubations were at 25 ° C for two hours; reactions in active tubes were terminated by addition of eserine. Absorbance at 412 nm was then measured. Protein concentration in extracts was measured by the Biorad method. […] Scatchard plot of ^3H-ponasterone A binding to Kr cell cytosolic receptor extracts in the presence of differing concentrations of Example No. 3. Cytosolic extract preparation and ecdysteroid receptor assays were essentially as described in Sage, 111 Meth. in Enzymol. 458 (1985). Example No. 3 was added in 1 ul DMSO to 50 ul of radioligand in 10 mM Tris buffer (pH 7.2) and 50 ul of undiluted cytosol extract. […] Ecdysteroid titers were measured by a radioimmunoassay adapted from Warren et al., 40 Experientia 393 (1984) with Protein A-Staph. aureus suspension (Sigma) used as the reagent to separate bound from free ligand. […]

ecdysone receptor = target: T1, ecdysone receptor (Drosophila melanogaster, UniProt P34021); assay: ^3H-ponasterone A binding to / displacement from Kr cell cytosolic receptor extracts; conditions: for displacement of ^3H-ponasterone A from cytosolic receptor extracts: at saturating concentrations
T1 construct: endogenous in cells; host or cells: Drosophila Kr (Kc) cells, undiluted cytosolic extract
T1 sequence (P34021 1-878): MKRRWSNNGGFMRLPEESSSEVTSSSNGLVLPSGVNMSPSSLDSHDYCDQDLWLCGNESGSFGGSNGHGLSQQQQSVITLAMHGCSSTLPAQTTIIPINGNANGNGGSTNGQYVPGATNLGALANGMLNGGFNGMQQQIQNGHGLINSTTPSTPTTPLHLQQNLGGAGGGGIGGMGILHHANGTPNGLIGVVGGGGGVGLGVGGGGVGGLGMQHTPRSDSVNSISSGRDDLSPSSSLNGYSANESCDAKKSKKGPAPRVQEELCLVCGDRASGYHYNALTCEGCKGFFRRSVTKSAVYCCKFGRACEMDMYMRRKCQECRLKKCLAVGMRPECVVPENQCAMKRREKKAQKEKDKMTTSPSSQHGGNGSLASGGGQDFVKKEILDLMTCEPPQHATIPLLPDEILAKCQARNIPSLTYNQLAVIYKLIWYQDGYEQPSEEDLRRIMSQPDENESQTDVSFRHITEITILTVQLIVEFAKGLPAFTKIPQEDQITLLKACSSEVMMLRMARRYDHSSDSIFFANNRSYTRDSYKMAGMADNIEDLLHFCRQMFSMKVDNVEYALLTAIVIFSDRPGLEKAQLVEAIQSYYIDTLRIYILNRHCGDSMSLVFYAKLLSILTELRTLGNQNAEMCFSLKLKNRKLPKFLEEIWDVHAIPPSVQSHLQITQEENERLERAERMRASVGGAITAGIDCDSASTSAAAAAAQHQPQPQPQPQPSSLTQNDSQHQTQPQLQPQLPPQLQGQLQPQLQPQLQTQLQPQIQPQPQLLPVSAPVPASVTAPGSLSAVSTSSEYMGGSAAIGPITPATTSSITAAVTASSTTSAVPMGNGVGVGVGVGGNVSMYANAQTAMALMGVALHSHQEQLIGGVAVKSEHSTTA
T1 sequence (P20153 1-508 partner): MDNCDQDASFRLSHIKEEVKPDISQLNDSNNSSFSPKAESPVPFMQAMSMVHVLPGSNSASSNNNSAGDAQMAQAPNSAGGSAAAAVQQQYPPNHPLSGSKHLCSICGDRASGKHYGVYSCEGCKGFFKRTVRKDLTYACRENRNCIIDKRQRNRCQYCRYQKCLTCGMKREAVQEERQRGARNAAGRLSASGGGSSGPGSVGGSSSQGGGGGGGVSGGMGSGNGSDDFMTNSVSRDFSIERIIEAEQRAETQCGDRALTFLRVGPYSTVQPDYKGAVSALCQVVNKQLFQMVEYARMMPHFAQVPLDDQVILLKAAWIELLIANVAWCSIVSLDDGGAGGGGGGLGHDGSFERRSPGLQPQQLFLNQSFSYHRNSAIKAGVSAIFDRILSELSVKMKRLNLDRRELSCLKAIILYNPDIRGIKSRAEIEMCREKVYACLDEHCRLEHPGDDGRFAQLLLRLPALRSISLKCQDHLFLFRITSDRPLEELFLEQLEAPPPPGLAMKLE
Protocol: The invention will now be further described by way of exemplification and by reference to the drawings in which; • Figure 1. Both 20-hydroxyecdysone and Example No. 3 induce process elaboration (A) and inhibition of cell proliferation (B) in Kr cells in a dose-dependent manner. Initial cell density was 2 X 10^6 cells/ml; after incubation of 1 ml aliquots of the cells with the compound for 48 hours the cells were triturated gently and the percentage of cells responding (with processes longer than approximately 17 um, see Cherbas et al. 189 Wilhelm Roux's Arch. 1 (1980)) and total cell density was determined by hemocytom- eter counting, relative to ethanol (1 ul)-treated controls. Determinations were in triplicate for each dose. […] Induction of acetylcholinesterase by varying concentrations of 20-hydroxyecdysone and Example No. 3. Kr cells at an initial density of 3 X 10^6 cells/ml (10 ml per sample) were incubated with the agonist for three days. After harvesting, by centrifugation at 3000 X g, the cell pellets were washed with Robb's Drosophila saline (18, 2 X 5 ml) at 4 ° C, then lysed by sonication in 1 ml of phosphate buffer (pH 7.4, I = 0.1 M) containing 0.5 M NaCI, 0.25 M EDTA and 0.5% TRITON? X-100. See Cherbas, 197 Science 275 (1977). Triton is a registered trademark of Rohm and Haas Company for a alkylaryl polyoxyethylene glycol surfactant. After centrifugation at 16,000 X g, the supernatants were assayed for acetylcholinesterase activity by an adaptation of the method of Ellman et al., 7 Biochem. Pharmacol. 88 (1961), by subtracting out any 412 nm absorbance observed in incubations in the presence of 2 X 10-5 eserine sulfate. Thus reaction mixtures contained 50 ul of enzyme extract, 20 ul eserine (blank tubes only) and 1.0 ml of 0.5 mM acetylthiocholine, 0.3 mM dithiobisnitrobenzoic acid in phosphate buffer (pH 7.4, I = 0.1 M). Incubations were at 25 ° C for two hours; reactions in active tubes were terminated by addition of eserine. Absorbance at 412 nm was then measured. Protein concentration in extracts was measured by the Biorad method. […] Scatchard plot of ^3H-ponasterone A binding to Kr cell cytosolic receptor extracts in the presence of differing concentrations of Example No. 3. Cytosolic extract preparation and ecdysteroid receptor assays were essentially as described in Sage, 111 Meth. in Enzymol. 458 (1985). Example No. 3 was added in 1 ul DMSO to 50 ul of radioligand in 10 mM Tris buffer (pH 7.2) and 50 ul of undiluted cytosol extract. After incubation overnight at 0.5 ° C, bound label was separated from free by addition of 300 ul 1% HCI-washed charcoal (Sigma) and 0.1% Dextran T70 (Pharmacia) in Tris buffer, centrifugation (13,000 X g, 3 min, 4 ° C) and liquid scintillation counting of a 300 ul aliquot of the supernatant in 15 ml Hydrofluor (National Diagnostics). Points are means of duplicate determinations. […] Relative ability of 20 hydroxyecdysone and Example No. 3 to displace ^3H-ponasterone A from cytosolic receptor extracts. Conditions were as in Figure 3 except that only 0.5 nM ponasterone A was used. • Points are means of duplicate determinations. For 20-hydroxyecdysone EC50 = 0.1 uM while for Example No. 3 EC50 = 3.0 uM. Control binding = 10 femtomoles ^3H-ponasterone A bound per mg cytosol protein. • Figure 4. Effects of 10 ppm Example No. 3 administered in artificial diet to newly ecdysed fourth instar (L4) M. sexta, monitoring (A)immunoreactive hemolymph ecdysteroid titers and (B)weight gain. Ecdysteroid titers were measured by a radioimmunoassay adapted from Warren et al., 40 Experientia 393 (1984) with Protein A-Staph. aureus suspension (Sigma) used as the reagent to separate bound from free ligand. The antiecdysone antiserum was formed by reaction of 20-hydroxyecdysone with carboxymethox- yamine resulting in the corresponding ecdysteroid 6-oxime acid. […] All samples were diluted appropriately in borate buffer pH 8.0 and assayed in duplicate. […]

antiecdysone antiserum = assay: Binding by antiecdysone antiserum (radioimmunoassay); conditions: ^3H-alpha ecdysone as the radioligand
Protocol: The invention will now be further described by way of exemplification and by reference to the drawings in which; • Figure 1. Both 20-hydroxyecdysone and Example No. 3 induce process elaboration (A) and inhibition of cell proliferation (B) in Kr cells in a dose-dependent manner. Initial cell density was 2 X 10^6 cells/ml; after incubation of 1 ml aliquots of the cells with the compound for 48 hours the cells were triturated gently and the percentage of cells responding (with processes longer than approximately 17 um, see Cherbas et al. 189 Wilhelm Roux's Arch. 1 (1980)) and total cell density was determined by hemocytom- eter counting, relative to ethanol (1 ul)-treated controls. Determinations were in triplicate for each dose. […] Induction of acetylcholinesterase by varying concentrations of 20-hydroxyecdysone and Example No. 3. Kr cells at an initial density of 3 X 10^6 cells/ml (10 ml per sample) were incubated with the agonist for three days. After harvesting, by centrifugation at 3000 X g, the cell pellets were washed with Robb's Drosophila saline (18, 2 X 5 ml) at 4 ° C, then lysed by sonication in 1 ml of phosphate buffer (pH 7.4, I = 0.1 M) containing 0.5 M NaCI, 0.25 M EDTA and 0.5% TRITON? X-100. See Cherbas, 197 Science 275 (1977). Triton is a registered trademark of Rohm and Haas Company for a alkylaryl polyoxyethylene glycol surfactant. After centrifugation at 16,000 X g, the supernatants were assayed for acetylcholinesterase activity by an adaptation of the method of Ellman et al., 7 Biochem. Pharmacol. 88 (1961), by subtracting out any 412 nm absorbance observed in incubations in the presence of 2 X 10-5 eserine sulfate. […] Absorbance at 412 nm was then measured. Protein concentration in extracts was measured by the Biorad method. […] Ecdysteroid titers were measured by a radioimmunoassay adapted from Warren et al., 40 Experientia 393 (1984) with Protein A-Staph. aureus suspension (Sigma) used as the reagent to separate bound from free ligand. […]

SMILES	ecdysone-like responses in whole Kr cells (Kr cells)	displacement of ^3H-ponasterone A from cytosolic receptor extracts (ecdysone receptor)	further results
O=C(NC(=O)c1c(F)cccc1F)Nc1cc(Cl)c(Oc2ncc(C(F)(F)F)cc2Cl)c(Cl)c1 [1-(3,5-dichloro-4-(3-chloro-5-trifluoromethyl-2-pyridyloxy)phenyl)-3-(2,6-difluorobenzoyl)urea]	failed to produce ecdysone-like responses	did not displace	–
O=C(NC(=O)c1c(F)cccc1F)Nc1ccc(Cl)cc1 [1-(4-chloro-phenyl)-3-(2,6-difluorobenzoyl)urea]	failed to produce ecdysone-like responses	did not displace	–
CC(C)CC[C@@H](O)[C@](C)(O)[C@H]1CC[C@@]2(O)C3=CC(=O)[C@@H]4C[C@@H](O)[C@@H](O)C[C@]4(C)[C@H]3CC[C@]12C [^3H-ponasterone A, ponasterone A]	–	–	Bmax (ecdysone receptor; Figure 3A legend, in the absence of Example No. 3): 0.79 nm; Kd (ecdysone receptor; Scatchard plot, in the absence of Example No. 3): 0.29 nM; Bmax (ecdysone receptor; text b415, in the absence of Example No. 3): 0.71 nM
C[C@H]([C@H](O)CCC(C)(C)O)[C@H]1CC[C@@]2(O)C3=CC(=O)[C@@H]4C[C@@H](O)[C@@H](O)C[C@]4(C)[C@H]3CC[C@]12C [alpha-ecdysone, reference compound]	–	–	fold greater affinity than 20-hydroxyecdysone (antiecdysone antiserum): 2.7 fold
